In patent EP0182135A2, “Novel bis-(substituted amino) anthraquinones” (AMERICAN CYANAMID COMPANY, priority 1984, dated 1986):
Several values for one entry are separate records, joined by “and”; a condition that tells them apart may be missing. Identical values can stand only once. Counter-ions that a name gives are not always drawn.

What was measured:
[1] = test system: lymphocytic leukemia P388; assay: Lymphocytic Leukemia P388 Test; type: in vivo, DBA/2 mice
Procedure: Lymphocytic Leukemia P388 Test
The animals used were DBA/2 mice all of one sex, weighing a minimum of 17 g and all within a 3 g weight range. There were 5 or 6 animals per test group. The tumor transplant was by intraperitoneal injection of 0.1 ml of dilute ascitic fluid containing 10^6 cells of lymphocytic leukemia P388. The test compounds were administered intraperitoneally on days 1, 5 and 9 (relative to tumor inoculation) at various doses. The animals were weighed and survivors were recorded on a regular basis for 30 days. The median survival time and the ratio of survival time for treated (T)/control (C) animals were calculated. The positive control compound was 1,4-dihydroxy-5,8-bis--[ [2-(2-hydroxyethylamino)ethyl ]amino]anthraquinone, dihydrochloride (U.S. Patent 4,197,249) given at the indicated doses by injection.

melanotic melanoma B16 = assay: Melanotic Melanoma B16 Test; type: in vivo, C57BC/6 mice
Procedure: The animals used were C57BC/6 mice, all of the same sex, weighing a minimum of 17 g and all within a 3 g weight range. There were normally 10 animals per test group. A 1.0 g portion of melanotic melanoma B16 tumor was homogenized in 10 ml of cold balanced salt solution and a 0.5 ml aliquot of the homogenate was implanted intraperitoneally into each of the test mice. The test compounds were administered intraperitoneally on days one through nine (relative to tumor inoculation) at various doses. The animals were weighed and survivors recorded on a regular basis for 60 days. The median survival time and the ratio of survival time for treated (T)/control (C) animals were calculated. The positive control compound was 1,4-dihydroxy-5,8-bis[[2-(2-hydroxyethylamino)-ethyl]amino]anthraquinone, dihydrochloride (U.S. Patent 4,197,249) given at the indicated doses by injection.

[2] = Dose 3 mg/kg intraperitoneally on days 1, 5 and 9, dihydrochloride, 3 mg/kg
[3] = Dose 12 mg/kg intraperitoneally on days 1, 5 and 9, dihydrochloride, 12 mg/kg
[4] = Dose 50 mg/kg intraperitoneally on days 1, 5 and 9, dihydrochloride, 50 mg/kg
[5] = Dose 0.8 mg/kg intraperitoneally on days one through nine
[6] = Dose 3 mg/kg intraperitoneally on days one through nine
[7] = Dose 12 mg/kg intraperitoneally on days one through nine
[8] = Dose 3 mg/kg intraperitoneally on days 1, 5 and 9, 3 mg/kg
[9] = Dose 12 mg/kg intraperitoneally on days 1, 5 and 9, 12 mg/kg
[10] = Dose 50 mg/kg intraperitoneally on days 1, 5 and 9, 50 mg/kg
[11] = Dose 200 mg/kg intraperitoneally on days 1, 5 and 9
[12] = Dose 25 mg/kg intraperitoneally on days one through nine
[13] = Dose 100 mg/kg intraperitoneally on days one through nine
[14] = Dose 0.025 mg/kg intraperitoneally on days 1, 5 and 9, dihydrochloride, 0.025 mg/kg
[15] = Dose 0.1 mg/kg intraperitoneally on days 1, 5 and 9, dihydrochloride, 0.1 mg/kg
[16] = Dose 0.4 mg/kg intraperitoneally on days 1, 5 and 9, dihydrochloride, 0.4 mg/kg
[17] = Dose 0.8 mg/kg intraperitoneally on days 1, 5 and 9
[18] = Dose 1.6 mg/kg intraperitoneally on days 1, 5 and 9, dihydrochloride, 1.6 mg/kg
[19] = Dose 0.025 mg/kg by injection, dihydrochloride, 0.025 mg/kg
[20] = Dose 0.1 mg/kg by injection, dihydrochloride, 0.1 mg/kg
[21] = Dose 0.2 mg/kg intraperitoneally on days one through nine
[22] = Dose 0.4 mg/kg by injection, dihydrochloride, 0.4 mg/kg
[23] = Dose 1.6 mg/kg by injection, dihydrochloride, 1.6 mg/kg
[24] = Dose 0.025 mg/kg intraperitoneally on days 1, 5 and 9
[25] = Dose 0.1 mg/kg intraperitoneally on days 1, 5 and 9
[26] = Dose 0.4 mg/kg intraperitoneally on days 1, 5 and 9
[27] = Dose 1.6 mg/kg intraperitoneally on days 1, 5 and 9
[28] = Dose 6.4 mg/kg intraperitoneally on days 1, 5 and 9
[29] = Dose 0.05 mg/kg intraperitoneally on days one through nine
[30] = Dose 3 mg/kg intraperitoneally on days 1, 5 and 9
[31] = Dose 12 mg/kg intraperitoneally on days 1, 5 and 9
[32] = Dose 50 mg/kg intraperitoneally on days 1, 5 and 9
[33] = Dose 50 mg/kg intraperitoneally on days one through nine

CN(C)CCCNC(=S)N(CCO)CCNc1ccc(NCCN(CCO)C(=S)NCCCN(C)C)c2c1C(=O)c1c(O)ccc(O)c1C2=O [N,N"-[(9,10-Dihydro-5,8-dihydroxy-9,10-dioxo-1,4-anthracenediyl)bis(imino-2,1-ethanediyl)]bis[N'-[3-(dimethylamino)propyl]-N-(2-hydroxyethyl)]thiourea, dihydrochloride]
Median Survival [1, 2]: 15 days
T/C x 100 (%) [1, 2]: 136%
Median Survival [1, 3]: 19.5 days
T/C x 100 (%) [1, 3]: 177%
Median Survival [1, 4]: 22.5 days
T/C x 100 (%) [1, 4]: 205%
Median Survival (melanotic melanoma B16; [5]): 24.5 days
T/C x 100 (%) (melanotic melanoma B16; [5]): 114%
Median Survival (melanotic melanoma B16; [6]): 33.5 days
T/C x 100 (%) (melanotic melanoma B16; [6]): 156%
Median Survival (melanotic melanoma B16; [7]): >60 days
T/C x 100 (%) (melanotic melanoma B16; [7]): >279%

CN(C)CCCNC(=S)N(CCO)CCNc1ccc(NCCN(CCO)C(=S)NCCCN(C)C)c2c1C(=O)c1c(O)ccc(O)c1C2=O [N,N"-[(9,10-Dihydro-5,8-dihydroxy-9,10-dioxo-1,4-anthracenediyl)bis(imino-2,1-ethanediyl)]bis[N'-[3-(dimethylamino)propyl]-N-(2-hydroxyethyl)]thiourea]
Median Survival [1, 8]: 13 days
T/C x 100 (%) [1, 8]: 124%
Median Survival [1, 9]: 13.5 days
T/C x 100 (%) [1, 9]: 129%
Median Survival [1, 10]: 19.5 days
T/C x 100 (%) [1, 10]: 186%
Median Survival [1, 11]: 23 days
T/C x 100 (%) [1, 11]: 219%
Median Survival (melanotic melanoma B16; [12]): 27.5 days
T/C x 100 (%) (melanotic melanoma B16; [12]): 146%
Median Survival (melanotic melanoma B16; [13]): 42 days
T/C x 100 (%) (melanotic melanoma B16; [13]): 222%

O=C1c2c(O)ccc(O)c2C(=O)c2c(NCCNCCO)ccc(NCCNCCO)c21 [Positive Control, 1,4-dihydroxy-5,8-bis--[ [2-(2-hydroxyethylamino)ethyl]amino]anthraquinone, dihydrochloride, reference compound]
Median Survival [1, 14]: 17 days and 18 days and 16 days
T/C x 100 (%) [1, 14]: 170% and 171% and 145%
Median Survival [1, 15]: 25.5 days and 14.5 days and 16.5 days and 21.5 days
T/C x 100 (%) [1, 15]: 255% and 132% and 150% and 205% and 232%
Median Survival ([1]; Dose 0.2 mg/kg intraperitoneally on days 1, 5 and 9): 14.5 days
T/C x 100 (%) ([1]; Dose 0.2 mg/kg intraperitoneally on days 1, 5 and 9, dihydrochloride, 0.2 mg/kg): 153% and 126%
Median Survival [1, 16]: 19.5 days and 27 days and >30 days and 19 days and 26.5 days
T/C x 100 (%) [1, 16]: 205% and 169% and 270% and >273% and 173% and 252%
Median Survival [1, 17]: 18 days
T/C x 100 (%) ([1]; Dose 0.8 mg/kg intraperitoneally on days 1, 5 and 9, dihydrochloride, 0.8 mg/kg): 189% and 156%
Median Survival [1, 18]: >30 days and 19.5 days
T/C x 100 (%) [1, 18]: >316% and >261% and >300% and >273% and >286% and 177%
Median Survival ([1]; Dose 3.2 mg/kg by injection): >30 days
T/C x 100 (%) ([1]; Dose 3.2 mg/kg by injection, dihydrochloride, 3.2 mg/kg): >261% and >316%
Median Survival (melanotic melanoma B16; [19]): 28 days and 26 days and 33 days and 28.5 days
T/C x 100 (%) (melanotic melanoma B16; [19]): 137% and 161% and 133%
Median Survival (melanotic melanoma B16; [20]): 36 days and 31.5 days and 39 days and 32 days and 42 days
T/C x 100 (%) (melanotic melanoma B16; [20]): 176% and 166% and 190% and 133% and 195%
Median Survival (melanotic melanoma B16; [21]): 32 days
T/C x 100 (%) (melanotic melanoma B16; [21]): 158%
Median Survival (melanotic melanoma B16; [22]): 36 days and >60 days and 58 days
T/C x 100 (%) (melanotic melanoma B16; [22]): 178% and >293% and >317% and >250% and 270%
Median Survival (melanotic melanoma B16; [5]): 35 days
T/C x 100 (%) (melanotic melanoma B16; [5]): 173%
Median Survival (melanotic melanoma B16; [23]): >60 days and 38 days and 37 days
T/C x 100 (%) (melanotic melanoma B16; [23]): >293% and >297% and 200% and >250% and 172%

O=C1c2c(OC(=O)C(F)(F)F)ccc(OC(=O)C(F)(F)F)c2C(=O)c2c(N(CCN(CCOC(=O)C(F)(F)F)C(=O)C(F)(F)F)C(=O)C(F)(F)F)ccc(N(CCN(CCOC(=O)C(F)(F)F)C(=O)C(F)(F)F)C(=O)C(F)(F)F)c21 [N,N'-(5,8-Dihydroxy-l,4-anthraquinonylene)bis[2,2,2-trifluoro-N-[2,(2,2,2-trifluoro-N-2-hydroxyethyl-acetamido)ethyl]acetamide]tetrakis(trifluoroacetate) (tetraester)]
Median Survival [1, 24]: 13.5 days
T/C x 100 (%) [1, 24]: 117%
Median Survival [1, 25]: 16 days
T/C x 100 (%) [1, 25]: 139%
Median Survival [1, 26]: 15 days
T/C x 100 (%) [1, 26]: 130%
Median Survival [1, 27]: 19.5 days
T/C x 100 (%) [1, 27]: 170%
Median Survival [1, 28]: 26.5 days
T/C x 100 (%) [1, 28]: 230%
Median Survival (melanotic melanoma B16; [29]): 27 days
T/C x 100 (%) (melanotic melanoma B16; [29]): 132%
Median Survival (melanotic melanoma B16; [21]): 27 days
T/C x 100 (%) (melanotic melanoma B16; [21]): 132%
Median Survival (melanotic melanoma B16; [5]): 34 days
T/C x 100 (%) (melanotic melanoma B16; [5]): 166%
Median Survival (melanotic melanoma B16; [6]): >52 days
T/C x 100 (%) (melanotic melanoma B16; [6]): >254%
Median Survival (melanotic melanoma B16; [7]): 42 days
T/C x 100 (%) (melanotic melanoma B16; [7]): 205%

COC(=O)C(=O)NCCNc1ccc(NCCNC(=O)C(=O)OC)c2c1C(=O)c1c(O)ccc(O)c1C2=O [2,2[(9-10-Dihydro-5,8-dihydroxy-9,10-dioxo-1,4-anthracenediyl)bis(imino-2,1-ethanediylimino)]-bis[2-oxoacetic acid]dimethyl ester]
Median Survival [1, 30]: 16 days
T/C x 100 (%) [1, 30]: 145%
Median Survival [1, 31]: 19.5 days
T/C x 100 (%) [1, 31]: 177%
Median Survival [1, 32]: 20.5 days
T/C x 100 (%) [1, 32]: 186%
Median Survival [1, 11]: 23 days
T/C x 100 (%) [1, 11]: 209%
Median Survival (melanotic melanoma B16; [5]): 23.5 days
T/C x 100 (%) (melanotic melanoma B16; [5]): 155%
Median Survival (melanotic melanoma B16; [6]): 26.5 days
T/C x 100 (%) (melanotic melanoma B16; [6]): 129%
Median Survival (melanotic melanoma B16; [7]): 31.5 days
T/C x 100 (%) (melanotic melanoma B16; [7]): 154%
Median Survival (melanotic melanoma B16; [33]): >60 days
T/C x 100 (%) (melanotic melanoma B16; [33]): >293%

CC(=O)OCCN(CCNc1ccc(NCCN(CCOC(C)=O)C(C)=O)c2c1C(=O)c1c(O)ccc(O)c1C2=O)C(C)=O [N,N'-[5,8-Dihydroxyl,4-anthraquinonylene-bis(imino-ethylene)]bis[N-2-hydroxyethylacetamide-2,2'diacetate]]
Median Survival [1, 17]: 11 days
T/C x 100 (%) [1, 17]: 116%
Median Survival [1, 30]: 10 days
T/C x 100 (%) [1, 30]: 105%
Median Survival [1, 31]: 14 days
T/C x 100 (%) [1, 31]: 147%
Median Survival [1, 32]: 16 days
T/C x 100 (%) [1, 32]: 168%
Median Survival [1, 11]: 17 days
T/C x 100 (%) [1, 11]: 179%
Median Survival (melanotic melanoma B16; [5]): 21.5 days
T/C x 100 (%) (melanotic melanoma B16; [5]): 106%
Median Survival (melanotic melanoma B16; [6]): 21.5 days
T/C x 100 (%) (melanotic melanoma B16; [6]): 106%
Median Survival (melanotic melanoma B16; [7]): 20.5 days
T/C x 100 (%) (melanotic melanoma B16; [7]): 101%
Median Survival (melanotic melanoma B16; [33]): 21.5 days
T/C x 100 (%) (melanotic melanoma B16; [33]): 106%

CC(=O)C(=O)NCCNc1ccc(NCCNC(=O)C(C)=O)c2c1C(=O)c1c(O)ccc(O)c1C2=O [N,N'-[9,10-Dihydro-5,8-dihydroxy-9,10-dioxo-1,4-anthracenediyl)bis(imino-2,1-ethanediyl)]bis-[2-oxopropanamide]]
Median Survival [1, 32]: 13.5 days
T/C x 100 (%) [1, 32]: 123%
Median Survival [1, 11]: 16.5 days
T/C x 100 (%) [1, 11]: 150%
Median Survival (melanotic melanoma B16; [12]): 43.5 days
T/C x 100 (%) (melanotic melanoma B16; [12]): 182%
Median Survival (melanotic melanoma B16; [33]): 41 days
T/C x 100 (%) (melanotic melanoma B16; [33]): 171%
Median Survival (melanotic melanoma B16; [13]): 38 days
T/C x 100 (%) (melanotic melanoma B16; [13]): 158%
